Experimental data: patent EP2787003A1, “Antimicrobial peptide produced by marine sponge-derived Bacillus subtilis” (priority 2013, dated 2014)

Columns and labels:
Test in all cases: Spot on lawn assay
Design in all cases: key: +, clear halo of growth inhibition; ++: multiple +, increased activity as assessed visually by the increased diameter of the inhibition zone; +++: multiple +, increased activity as assessed visually by the increased diameter of the inhibition zone; ++++: multiple +, increased activity as assessed visually by the increased diameter of the inhibition zone; +++++: multiple +, increased activity as assessed visually by the increased diameter of the inhibition zone; -, no inhibition
S. aureus = type: cell-based, Staphylococcus aureus NCDO 949; conditions: indicator S. aureus
Method: (§1) Antimicrobial activity of isolate MMA7 against the indicator strains was initially assessed with a deferred antagonism assay as described by Phelan et al. (2012). Subsequent testing of supernatants, crude extracts and purified compounds was carried out with a well and/or a spot on lawn assays. Essentially, 5 µl of samples were spotted onto 20 ml agar plates seeded with the indicator strain to a final OD600 of 0.015, or 30 µl aliquots were applied to a 5 mm well made on identical plates.

C. parapsilosis = type: cell-based, Candida parapsilosis; conditions: indicator C. parapsilosis
Method: as §1

P. aeruginosa = type: cell-based, Pseudomonas aeruginosa PAO1; conditions: indicator P. aeruginosa; *activity only detected with 4 to 5 times more peptide than that used for the other indicators
Method: as §1

hVISA = type: cell-based, hVISA 35197; conditions: indicator hVISA

Compound: C=C1NC(=O)[C@@H]2CSC[C@@H](NC(=O)[C@@H]3CS[C@@H](C)[C@H]4NC(=O)[C@H](Cc5ccccc5)NC(=O)[C@H](NC(=O)[C@H](CCCNC(=N)N)NC(=O)[C@@H]5CSC[C@@H](NC(=O)[C@H](CCC(N)=O)NC(=O)[C@@H](NC(=O)[C@@H](NC(=O)/C(=C/C)NC(=O)[C@H](CCCCN)NC(=O)CNC(=O)[C@@H](NC(=O)/C(=C/C)NC(=O)[C@H](C)NC(=O)[C@H](Cc6c[nH]c7ccccc67)NC(=O)C(=O)CC)[C@@H](C)CC)[C@@H](C)CC)C(C)C)C(=O)N[C@@H](C(C)C)C(=O)N[C@@H](CCCCN)C(=O)N[C@@H](CCCCN)C(=O)N5)[C@H](C)SC[C@H](NC4=O)C(=O)NCC(=O)N3)C(=O)N[C@@H](CC(C)C)C(=O)NCC(=O)N[C@H](CSC[C@@H](C(=O)N[C@@H](CC(N)=O)C(=O)O)NC(=O)[C@H](CC(N)=O)NC1=O)C(=O)N2 [Subtilomycin]
- Antimicrobial activity, spot on lawn assay (S. aureus): +
- Antimicrobial activity, spot on lawn assay (C. parapsilosis): -
- Antimicrobial activity, spot on lawn assay (P. aeruginosa): +*
- Antimicrobial activity, spot on lawn assay (hVISA): +
